Laboratory results: patent publication US3940386A, “Substituted cinnamoyl-piperazine-pyridyl compound” (Cermol S.A., priority 1973, dated 1976)
Structures can show the parent of a compound that is named as a salt.

Experiments:
[1] = Acute toxicity on mice, orally and intraperitoneally (Table I); type: in vivo; details: mouse, in vivo, suspended in gum syrup or labrafil
Description: (§1) Tests were performed on mice, orally (P.O.) and intraperitoneally (I.P.), the active compounds being suspended in gum syrup or labrafil.

mice [2] = experiment: as above; type: in vivo; details: for LD0: suspended in gum syrup or labrafil
Description: as §1

[3] = Set of methods and tests of the activity of the products (vasodilatatory, spasmolytic, antihistaminic, cholinolytic, sedative, depressant, neurotoxic)
Source text: The set of methods and tests effected enabled us to appreciate the activity of the products according to the invention. It clearly follows therefrom that the products wherein: […]

[4] = Toxicity (mice), I.G. (Table III); type: in vivo; details: mouse, in vivo, po
Source text: (§2) The products were used in the form of the trihydrochloride, except the product under the letter "b" which was used in the form of the dihydrochloride.

mice [5] = experiment: Toxicity (mice), I.G. (Table III); type: in vivo
Source text: as §2

[6] = Acute toxicity, oral, albino rats (Table II); type: in vivo; details: rat, in vivo, aqueous solution
Description: (§3) Tests were performed on mice and albino rats, the active compound being administered orally in the form of an aqueous solution.

albino rats = experiment: Acute toxicity, oral, albino rats (Table II); type: in vivo; details: aqueous solution
Description: as §3

[7] = Acute toxicity, oral, mice (Table II); type: in vivo; details: mouse, in vivo, aqueous solution
Description: as §3

mice [8] = experiment: Acute toxicity, oral, mice (Table II); type: in vivo; details: aqueous solution
Description: as §3

cerebral circulation = experiment: Cerebral circulation: PO2 of the venous cerebral blood (sinus sagittalis) in cats anaesthetized with Nembutal; type: in vivo; details: intravenous perfusion
Description: In the course of a series of experiments on cats anaesthetized with Nembutal, the cynetics of PO2 of the venous cerebral blood were measured (from the sinus sagittalis) during an intravenous perfusion of this product.

Compound	antihistaminic activity [3]	depressant properties [3]	neurotoxic properties [3]	spasmolytic activity [3]	vasodilatatory activity [3]	LD50 [4] [mg/kg]	LD0 (mice [5]; mouse, in vivo) [mg/kg]	other results
C(=Cc1ccccc1)CN1CCN(C(c2ccccc2)C2CC2)CC1 (stereo not drawn) [--CH2 --, 1-(cyclopropylphenyl)-methyl-4-cinnamyl piperazine]								LD50 ([1]; po, P.O.): 570 mg/kg; LD0 (mice [2]; P.O.): ~300 mg/kg
Fc1ccc(C(c2ccccn2)N2CCN(CC=Cc3ccccc3)CC2)cc1 (stereo not drawn) [1(2'-pyridyl-4"-fluorophenyl)-methyl-4-cinnamyl piperazine]	well-defined	do not show	do not show	well-defined	well-defined	400	300	
C(=Cc1ccccc1)CN1CCN(C(c2ccccc2)c2ccccn2)CC1 (stereo not drawn) [1-(2'-pyridylphenyl)-methyl-4-cinnamyl piperazine]								LD50 [6]: 1200 mg/kg; LD0 (albino rats): 200 mg/kg; LD50 [7]: 295 mg/kg; LD0 (mice [8]): 175 mg/kg
Clc1ccc(C(c2ccccn2)N2CCN(CC=Cc3ccccc3)CC2)cc1 (stereo not drawn) [1-(2'-pyridyl-4"-chlorophenyl)-methyl-4-cinnamyl piperazine]	well-defined	do not show	do not show	well-defined	well-defined	1180	400	activity with respect to cerebral circulation (cerebral circulation): important activity
Clc1ccc(C(c2ccccn2)N2CCN(CC=Cc3ccccc3)CC2)c(Cl)c1 (stereo not drawn) [1-(2'-pyridyl-2",4"-dichlorophenyl)-methyl-4-cinnamyl piperazine trihydrochloride]	well-defined	do not show	do not show	well-defined	well-defined	600	400	
CC(c1ccc(Cl)cc1)(c1ccccn1)N1CCN(CC=Cc2ccccc2)CC1 (stereo not drawn) [1-(2'-pyridyl-4"-chlorophenylmethyl)-methyl-4-cinnamyl piperazine]								sedative activity [3]: presents a sedative activity; LD50 ([4]; mice, I.G.): 500 mg/kg; LD0 (mice [5]; mice, I.G.): 400 mg/kg
O=C(C=Cc1ccccc1)N1CCN(C(c2ccccc2)C2CC2)CC1 (stereo not drawn) [C = O, 1-(cyclopropylphenyl)-methyl-4-cinnamoyl piperazine]								LD50 ([1]; ip, I.P.): 1480 mg/kg; LD50 ([1]; po, P.O.): > 4000 mg/kg; LD0 (mice [2]; I.P.): > 400 mg/kg; LD0 (mice [2]; P.O.): > 1000 mg/kg; toxicity (mice [2]; in words): very low toxicity
